The NIST ThermoML archive (doi:10.1016/j.jct.2009.08.018)
Numbers after ± are expanded uncertainties.

Assay: xn = mol fraction of the nth substance listed
Conditions: Liquid, Static

CCCCCCCCCCn1cc[n+](C)c1.O=S(=O)([N-]S(=O)(=O)C(F)(F)F)C(F)(F)F + O=C=O
Conditions	molar volume [m3/mol]
298.15 K, 1474 kPa, x2 = 0.35	0.0002775 ± 2.3e-07
298.15 K, 2828 kPa, x2 = 0.562	0.0001997 ± 1.5e-07
298.15 K, 4516 kPa, x2 = 0.709	0.000147 ± 8e-08
298.15 K, 6799 kPa, x2 = 0.81	0.0001111 ± 7e-08
298.15 K, 8659 kPa, x2 = 0.83	0.0001006 ± 6e-08
298.15 K, 10909 kPa, x2 = 0.841	9.556e-05 ± 4e-08
298.15 K, 12873 kPa, x2 = 0.848	9.235e-05 ± 4e-08
298.15 K, 14847 kPa, x2 = 0.849	9.169e-05 ± 4e-08
323.15 K, 1439 kPa, x2 = 0.257	0.0003212 ± 1.8e-07
323.15 K, 3371 kPa, x2 = 0.489	0.0002347 ± 1.2e-07
323.15 K, 6891 kPa, x2 = 0.696	0.0001569 ± 1e-07
323.15 K, 8581 kPa, x2 = 0.752	0.0001354 ± 6e-08
323.15 K, 10917 kPa, x2 = 0.8	0.0001145 ± 4e-08
323.15 K, 13030 kPa, x2 = 0.814	0.0001086 ± 4e-08
323.15 K, 14596 kPa, x2 = 0.819	0.0001071 ± 4e-08
343.15 K, 2003 kPa, x2 = 0.302	0.0003089 ± 2.2e-07
343.15 K, 3941 kPa, x2 = 0.475	0.0002428 ± 1.6e-07
343.15 K, 6242 kPa, x2 = 0.587	0.0002017 ± 1.2e-07
343.15 K, 8674 kPa, x2 = 0.683	0.000164 ± 1e-07
343.15 K, 10773 kPa, x2 = 0.744	0.0001384 ± 8e-08
343.15 K, 12515 kPa, x2 = 0.776	0.0001249 ± 6e-08
343.15 K, 14534 kPa, x2 = 0.801	0.000113 ± 6e-08

CCCCCC[n+]1ccn(C)c1.O=S(=O)([N-]S(=O)(=O)C(F)(F)F)C(F)(F)F + O=C=O
Conditions	molar volume [m3/mol]
298.15 K, 2015 kPa, x2 = 0.396	0.0002205 ± 1.4e-07
298.15 K, 3586 kPa, x2 = 0.592	0.000163 ± 9e-08
298.15 K, 6489 kPa, x2 = 0.762	0.0001127 ± 8e-08
298.15 K, 8967 kPa, x2 = 0.8	9.883e-05 ± 4e-08
298.15 K, 10321 kPa, x2 = 0.81	9.556e-05 ± 4e-08
298.15 K, 11969 kPa, x2 = 0.819	9.198e-05 ± 4e-08
298.15 K, 13525 kPa, x2 = 0.822	9.084e-05 ± 4e-08
298.15 K, 14804 kPa, x2 = 0.823	9.095e-05 ± 4e-08
323.15 K, 800 kPa, x2 = 0.139	0.0003082 ± 1.9e-07
323.15 K, 3716 kPa, x2 = 0.487	0.0002013 ± 1e-07
323.15 K, 5430 kPa, x2 = 0.583	0.0001725 ± 8e-08
323.15 K, 6560 kPa, x2 = 0.637	0.0001568 ± 8e-08
323.15 K, 8039 kPa, x2 = 0.692	0.0001395 ± 6e-08
323.15 K, 9078 kPa, x2 = 0.726	0.0001282 ± 6e-08
323.15 K, 9969 kPa, x2 = 0.751	0.000118 ± 6e-08
323.15 K, 11081 kPa, x2 = 0.769	0.0001108 ± 4e-08
323.15 K, 12224 kPa, x2 = 0.774	0.0001094 ± 4e-08
323.15 K, 12959 kPa, x2 = 0.779	0.0001079 ± 4e-08
343.15 K, 1793 kPa, x2 = 0.14	0.0003081 ± 1.8e-07
343.15 K, 2754 kPa, x2 = 0.239	0.0002782 ± 1.4e-07
343.15 K, 5537 kPa, x2 = 0.436	0.0002194 ± 1.2e-07
343.15 K, 8861 kPa, x2 = 0.596	0.0001701 ± 8e-08
343.15 K, 11560 kPa, x2 = 0.673	0.0001447 ± 6e-08
343.15 K, 14469 kPa, x2 = 0.721	0.0001282 ± 6e-08
343.15 K, 19818 kPa, x2 = 0.755	0.0001169 ± 4e-08
343.15 K, 24708 kPa, x2 = 0.771	0.0001115 ± 4e-08

CCn1cc[n+](C)c1.O=S(=O)([N-]S(=O)(=O)C(F)(F)F)C(F)(F)F + O=C=O
Conditions	molar volume [m3/mol]
298.15 K, 1235 kPa, x2 = 0.28	0.000204 ± 1.3e-07
298.15 K, 3254 kPa, x2 = 0.533	0.0001415 ± 1e-07
298.15 K, 6471 kPa, x2 = 0.747	9.622e-05 ± 4e-08
298.15 K, 10194 kPa, x2 = 0.767	9.034e-05 ± 5e-08
298.15 K, 11608 kPa, x2 = 0.777	8.747e-05 ± 5e-08
298.15 K, 13084 kPa, x2 = 0.781	8.646e-05 ± 5e-08
298.15 K, 14794 kPa, x2 = 0.782	8.625e-05 ± 5e-08
323.15 K, 2005 kPa, x2 = 0.302	0.0002021 ± 1.4e-07
323.15 K, 4250 kPa, x2 = 0.483	0.0001607 ± 1e-07
323.15 K, 6213 kPa, x2 = 0.587	0.0001367 ± 8e-08
323.15 K, 8156 kPa, x2 = 0.657	0.0001197 ± 6e-08
323.15 K, 10081 kPa, x2 = 0.711	0.0001049 ± 6e-08
323.15 K, 12307 kPa, x2 = 0.743	9.597e-05 ± 4e-08
323.15 K, 14625 kPa, x2 = 0.749	9.492e-05 ± 4e-08
343.15 K, 2182 kPa, x2 = 0.247	0.0002186 ± 1.4e-07
343.15 K, 4070 kPa, x2 = 0.416	0.0001777 ± 1e-07
343.15 K, 6063 kPa, x2 = 0.509	0.0001559 ± 8e-08
343.15 K, 7999 kPa, x2 = 0.579	0.0001394 ± 8e-08
343.15 K, 9938 kPa, x2 = 0.636	0.0001249 ± 6e-08
343.15 K, 12143 kPa, x2 = 0.684	0.0001117 ± 6e-08
343.15 K, 14682 kPa, x2 = 0.709	0.0001056 ± 4e-08
